Measurements published in patent US6011070A, “Slow-onset, long-lasting dopamine reuptake blockers” (priority 1997, dated 2000).
“Also recorded” adds a separate entry of the source. Where two headings read alike, the source gives them in different places.

Key:
[1] = test system: male rhesus monkeys
[2] = test system: male Swiss-Webster mice; test: Time course study of locomotor stimulation over 8 hours (Example 6); type: in vivo, Swiss-Webster mice (Hsd:ND4); details: for ED50: Mus musculus, ip, read-out: ED50 (dose producing one half maximal stimulant activity); for Maximum effect (horizontal activity) / Dose of maximum effect: logistic peak fit
Method: A dose response study of induced locomotor stimulation was conducted according to the following procedure. The study was conducted using 16 Digiscan locomotor activity testing chambers (40.5×40.5×30.5 cm) housed in sets of two, within sound-attenuating chambers. A panel of infrared beams (16 beams) and corresponding photodetectors were located in the horizontal direction along the sides of each activity chamber. A 7.5-W incandescent light above each chamber provided dim illumination. Fans provided an 80-dB ambient noise level within the chamber. Separate groups of 8 non-habituated male Swiss-Webster mice (Hsd:ND4, aged 2-3 months) were injected via the intraperitoneal (IP) route with either vehicle (0.9% saline) or test compound (5, 10, 20 or 40 mg/kg), immediately prior to locomotor activity testing. In all studies, horizontal activity (interruption of photocell beams) was measured for 8 hours within 10 minute periods, beginning at […]) two hours after lights on). Testing was conducted with one mouse per activity chamber.
Stimulant effects of 10, 20 and 40 mg/kg occurred within 10 minutes following injection and lasted up to 3 hours. […] Using TableCurve 2D v2.03 software (Jandel Scientific), the mean average horizontal activity counts for this 30-min period were fit to a 3-parameter logistic peak function of log10 dose (with the constant set to 3172, the mean of the saline-treated group), and the maximum was estimated from the resulting curve (maximum=6059 counts/10 min at 18.3 mg/kg).
Separate groups of eight mice were injected with either vehicle (deionized water) or Compound 2 (1, 3, 10 pr 30 mg/kg) immediately prior to locomotor activity testing.
Stimulant effects occurred within 40 to 70 minutes following injection and lasted 4 to ≥7 hours. The time period 280-310 min was selected for analysis of dose-response data because this was the time period in which maximal stimulant effects first appeared as a function of dose. Using TableCurve 2D v2.03 software (Jandel Scientific), the mean average horizontal activity counts/10 min for this period were fit to a 3-parameter logistic peak function of log10 dose (with the constant set to 399, the mean of the vehicle-treated group), and the maximum effect estimated from the resulting curve (maximum=4581 counts/10 min at 12.9 mg/kg).

[3] = test system: cocaine-induced stimulation; test: Interaction study: block of cocaine-induced locomotor stimulation (20 mg/kg cocaine IP) (Example 3); type: in vivo, Swiss-Webster mice; details: for ED50: Mus musculus, ip, read-out: AD50 (dose attenuating cocaine-induced stimulation by 50%)
Method: This interaction study was conducted using 16 Digiscan locomotor activity testing chambers as described in Example 2. […] When testing the effects of Compounds 6 and 7, mice were placed in the Digiscan apparatus twenty minutes after the injection of the test compound or vehicle.
FIGS. 9, 17 and 19 show average horizontal activity counts for the different treatment groups as a function of time. […] FIGS. 10, 18 and 20 show average horizontal activity counts/10 min for different treatment groups as a function of dose.
A one-way analysis of variance conducted on log10 horizontal activity counts for the selected time period indicated a significant overall effect for the treatment groups; F(4,35)=[…] for Compound 2; F(5,42)=[…] for Compound 6; and F((5,42)=8.96 p<0.5). […] All ps<0.05 are denoted in FIGS. 10, 18 and 20 with an asterisk.

[4] = test system: male Swiss-Webster mice; test: Dose response study of induced locomotor stimulation (Digiscan), 1 h session (Example 2); type: in vivo, Swiss-Webster mice (Hsd:ND4); details: IP; for Maximal Effect Relative to Cocaine / ED50: locomotor activity; for ED50: Mus musculus, 30-60 min period
Method: A dose response study of induced locomotor stimulation was conducted according to the following procedure. The study was conducted using a 16 or 32 Digiscan locomotor activity testing chambers (40.5×40.5×30.5 cm) housed in sets of two, within sound-attenuating chambers. A panel of infrared beams (16 beams) and corresponding photodetectors were located in the horizontal direction along the sides of each activity chamber. A 15-W incandescent light above each chamber provided dim illumination. Fans provided an 80-dB ambient noise level within the chamber. Separate groups of 8 non-habituated male Swiss-Webster mice (Hsd:ND4, aged 2-3 months) were injected via the intraperitoneal (IP) route with either vehicle (deionized water for Compounds 1-4, carboxymethylcellulose for Compound 6 or methyl cellulose for Compound 7)) or test compound (1, 2.5, 5, 10, 25 or 50 mg/kg for Compound 3; 1, 3, 10 and 30 mg/kg for Compounds 1, 2 and 4; 3, 10, 30 or 100 mg/kg for Compound 6; and 1, 3, 10, 30 and 100 mg/kg for Compound 7). Compounds 1-4 were injected immediately prior to locomotor activity testing. […] In all studies, horizontal activity (interruption of photocell beams) was measured for 1 hour within 10 minute periods. Testing was conducted with one mouse per activity chamber.
FIGS. 1, 3, 5 and 7 show average horizontal activity counts/10 minutes as a function of time, immediately following injection of Compound 1, Compound 2, Compound 3 and Compound 4, respectively. FIGS. 13 and 15 show average horizontal activity counts/10 minutes as a function of time, beginning twenty minutes following injection of Compound 6 and Compound 7, respectively. The period 30-60 minutes was selected for analysis of dose-response data. Using TableCurve 2D v2.03 software (Jandel Scientific), the mean average horizontal activity counts/10 minutes for this period were fit to a 3-parameter logistic peak function of log10 dose (with the constant set to 1989, the mean of the vehicle-treated group), and the maximum effect estimated from the resulting curve. […] FIGS. 2, 4, 6, 8, 14 and 16 show average horizontal activity counts/10 minutes over 30 minutes versus the amount administered of Compound 1, Compound 2, Compound 3, Compound 4, Compound 6 and Compound 7, respectively.

[5] = test system: squirrel monkeys; test: Locomotor response in primates (Example 5); type: in vivo
[6] = read-out: ED50 (dose producing 1/2 maximal stimulant activity)

## COC(=O)[C@H]1[C@@H](OC(=O)c2ccccc2)C[C@@H]2CC[C@H]1N2C [Cocaine, reference compound]
[1]; 0.0032 mg/kg/inj cocaine, monkey 89B013
  Control rate of responding maintained by cocaine (drug component): 0.51 responses/sec
[1]; 0.0032 mg/kg/inj cocaine, monkey 89B056
  Control rate of responding maintained by cocaine (drug component): 0.79 responses/sec
[1]; 0.0032 mg/kg/inj cocaine, monkey J3A
  Control rate of responding maintained by cocaine (drug component): 0.57 responses/sec
[1]; 0.01 mg/kg/inj cocaine, monkey WH8
  Control rate of responding maintained by cocaine (drug component): 0.45 responses/sec
[1]; control conditions, monkey WH8
  Unit dose of cocaine maintaining maximal rates of self-administration: 0.01 mg/kg/inj
[1]; control conditions, monkeys 89B056 and J3A
  Unit dose of cocaine maintaining maximal rates of self-administration: 0.0032 mg/kg/inj
[1]; control conditions, no pretreatment
  Shape of dose-effect curve for cocaine self-administration: inverted-U shape
[2]; 0.5 h
  ED50: 8.8 mg/kg
[2]; cocaine 10, 20 and 40 mg/kg IP
  Duration of stimulant effects: up to 3 hours
  Onset of stimulant effects following injection: ≤ 10 min
[2]; cocaine, 0-30 min, at 18.3 mg/kg
  Maximum effect (horizontal activity): 6059 counts/10 min
[2]; cocaine, 0-30 min
  Dose of maximum effect: 18.3 mg/kg
[2]; cocaine, doses from 10 to 40 mg/kg IP
  Stimulation of locomotor activity: time-dependent stimulation of locomotor activity
[2]; first minutes following 20 mg/kg cocaine
  Period of maximal stimulant effects: ≤ 30 min

## CCCN(C)C1CC(c2ccc(Cl)c(Cl)c2)c2ccccc21 (centres unmarked) [Compound 2]
[2]; Compound 2
  Period of maximal stimulant effects: 280 to 310 min
[2]; Compound 2, 3 to 30 mg/kg
  Duration of stimulant effects: UP TO SEVEN
[2]; Compound 2, 280-310 min
  Maximal effect/cocaine maximal effect ratio (ME/CME): 1.4
  Dose of maximum effect: 12.9 mg/kg
[2]; Compound 2, 280-310 min, at 12.9 mg/kg
  Maximum effect (horizontal activity): 4581 counts/10 min
[2]; Compound 2, doses from 3 to 30 mg/kg
  Stimulation of locomotor activity: time-dependent stimulation of locomotor activity
[2]; 310 min, Compound 2, 280-310 min, 1 to 10 mg/kg ascending portion
  ED50: 3.3 mg/kg
[3]; 20 mg/kg cocaine IP
  Effect on cocaine-induced locomotor stimulation: antagonized the stimulant effect of cocaine; also recorded: block cocaine induced locomotor activity
[3]; 20 mg/kg cocaine IP, 0-30 min, p<0.05
  Dose with significant difference against the cocaine group (planned comparisons): 30 mg/kg
[3]
  ED50: 13.8 mg/kg
[4]
  Maximal Effect Relative to Cocaine: 0.51
[4]; [6]
  ED50: 5.65 mg/kg

## CCN(C)C1CC(c2ccc(Cl)c(Cl)c2)c2ccccc21 (centres unmarked) [Compound 3]
[4]
  Maximal Effect Relative to Cocaine: 0.93
[4]; [6]
  ED50: 10.8 mg/kg

## CCNC1CC(c2ccc(Cl)c(Cl)c2)c2ccccc21 (centres unmarked) [Compound 4]
[4]
  Maximal Effect Relative to Cocaine: 1.07
[4]; [6]
  ED50: 3.9 mg/kg

## CNC1CC(c2ccc(Cl)c(Cl)c2)c2ccccc21 (centres unmarked) [Compound 5]
[5]; 0.3 mg/kg Compound 5
  Duration of stimulated locomotor activity / increased response rate: two to four
[5]; 0.3 mg/kg Compound 5, Day 1, Monkey 1 (control 0.74)
  Number of Responses/Second: 1.29 responses/second
[5]; 0.3 mg/kg Compound 5, Day 1, Monkey 2 (control 0.72)
  Number of Responses/Second: 0.87 responses/second
[5]; 0.3 mg/kg Compound 5, Day 1, Monkey 3 (control 0.92)
  Number of Responses/Second: 1.11 responses/second
[5]; 0.3 mg/kg Compound 5, Day 2, Monkey 1 (control 0.74)
  Number of Responses/Second: 0.99 responses/second
[5]; 0.3 mg/kg Compound 5, Day 2, Monkey 2 (control 0.72)
  Number of Responses/Second: 1.18 responses/second
[5]; 0.3 mg/kg Compound 5, Day 2, Monkey 3 (control 0.92)
  Number of Responses/Second: 1.28 responses/second
[5]; 0.3 mg/kg Compound 5, Day 3, Monkey 1 (control 0.74)
  Number of Responses/Second: 0.75 responses/second
[5]; 0.3 mg/kg Compound 5, Day 3, Monkey 2 (control 0.72)
  Number of Responses/Second: 0.88 responses/second
[5]; 0.3 mg/kg Compound 5, Day 3, Monkey 3 (control 0.92)
  Number of Responses/Second: 1.13 responses/second
[5]; 0.3 mg/kg Compound 5, Day 4, Monkey 1 (control 0.74)
  Number of Responses/Second: 0.79 responses/second
[5]; 0.3 mg/kg Compound 5, Day 4, Monkey 2 (control 0.72)
  Number of Responses/Second: 0.74 responses/second
[5]; 0.3 mg/kg Compound 5, Day 4, Monkey 3 (control 0.92)
  Number of Responses/Second: 1.01 responses/second

## CC(C)(C)NC1CC(c2ccc(Cl)c(Cl)c2)c2ccccc21 (centres unmarked) [Compound 6]
[3]; 20 mg/kg cocaine IP
  Effect on cocaine-induced locomotor stimulation: antagonized the stimulant effect of cocaine
[3]
  ED50: 23.6 mg/kg
[4]; [6]
  ED50: 506 mg/kg

## CN(C1CC(c2ccc(Cl)c(Cl)c2)c2ccccc21)C(C)(C)C (centres unmarked) [Compound 7]
[3]; 20 mg/kg cocaine IP
  Effect on cocaine-induced locomotor stimulation: antagonized the stimulant effect of cocaine; also recorded: block cocaine induced locomotor activity
[3]
  ED50: 42.5 mg/kg
[4]
  Effect on locomotor activity: inhibited locomotor activity
[4]; read-out: ID50 (dose producing 1/2 maximal inhibitory activity)
  ED50: 184 mg/kg
